Experimental data from US20100292292A1, “Treatment of Neurodegenerative Diseases Using Indatraline Analogs” (LINK MEDICINE CORPORATION, priority 2007, published 2010).
“Also recorded” adds a separate entry of the source.

Tests used:
[1] = molecular target: T1, purified recombinant human α-synuclein (Homo sapiens, UniProt P37840); experiment: α-synuclein structure formation/aggregation in the presence of HFIP (Thioflavin T fluorescence, fluorescence polarization); assay type: binding; conditions: α-synuclein 20 μM, 25 mM Tris pH 8.0, 3.1% HFIP, room temperature, compound 50-400 μM, Thioflavin T fluorescence and/or fluorescence polarization
Method: HFIP induces rapid structure formation and aggregation of α-synuclein (Munishkina et al., Biochemistry 42:2720-30, 2003; Maiti, Apetri et al., J Am Chem Soc, 126:2399-408, 2004; each of which is incorporated herein by reference). Compounds were incubated with purified recombinant human α-synuclein (20 μM) in a buffer containing HFIP (25 mM Tris, pH 8.0, 3.1% HFIP) at room temperature. Structure formation was monitored by Thioflavin T fluorescence and fluorescence polarization. Thioflavin T fluorescence can be used to measure aggregation of amyloidogenic proteins, including α-synuclein (excitation, 440 nm; emission, 495 nm) (Naiki et al., Anal. Biochem., 177:244-9, 1989; Conway et al., Biochemistry, 39:2552-63, 2000; each of which is incorporated herein by reference). Average molecular size was monitored by fluorescence polarization using human α-synuclein covalently conjugated to Alexa Fluor 594 (excitation, 546 nm; emission, 620 nm). Assays were performed in a 384-well plate and readings taken directly from each well over time.

[2] = tested on: α-synuclein-induced retinal degeneration in transgenic Drosophila (human A30P α-synuclein); experiment: Drosophila retinal assay; assay type: in vivo; conditions: transgenic Drosophila expressing human A30P α-synuclein in retina, drug in food
Excerpt: Human A30P α-synuclein expression was directed to the retina with the glass multimer reporter (GMR) promoter. The transgene induces progressive retinal degeneration. Dry food (Formula 4-24; Carolina Biological Supply) was rehydrated with water or an aqueous solution of drug. Drug concentration refers to the final concentration of compound in the aqueous solution. Transgenic female flies less than 12-hours-old were placed on either untreated or drug-embedded food. For analysis of retinal degeneration, fly heads were annealed to a glass microscope, then eyes were transilluminated following optical neutralization of the corneas with immersion oil and examined under a 100× lens (Franceschini, N., Pupil and pseudopupil in the compound eye of Drosophila. In Information processing in the visual system of Drosophila, Wehner, R., Ed. Springer: Berlin, 1972; pp 75-82; incorporated here in by reference). For quantitation, 20-50 ommatidia per eye of at least 12 eyes were examined per group. The percent normal ommatidia was calculated for each eye and averaged for each sample set. Indatraline suppressed α-synuclein-induced retinal degeneration (FIG. 26A).

[3] = tested on: dopaminergic neurons (primary rat embryonic midbrain culture) infected with lentivirus encoding human A53T α-synuclein; experiment: Primary neuronal toxicity assay; assay type: cell-based; conditions: for decrease of α-synuclein neurotoxicity in dopaminergic neurons (TH+ cells): E17 rat midbrain culture, A53T α-synuclein lentivirus, 3 days treatment
Excerpt: Indatraline decreased α-synuclein neurotoxicity in dopaminergic neurons. Midbrain cultures will be prepared from E17 rat ventral mesencephalon as described in a published protocol (Xu, J.; Kao, S. Y.; Lee, F. J.; Song, W.; Jin, L. W.; Yankner, B. A., Dopamine-dependent neurotoxicity of alpha-synuclein: a mechanism for selective neurodegeneration in Parkinson disease. Nat Med 2002, 8, (6), 600-6; incorporated herein by reference). Cultured cells were infected with a recombinant lentivirus encoding human A53T α-synuclein (A53T) or a control virus (none). Cells were treated with various concentrations of indatraline (black bars) for 3 days. Cells were then fixed and immunostained for Microtubule-associated protein 2, which stains all neurons, and Tyrosine Hydroxylase, a marker for dopaminergic neurons. Toxicity of A53T α-synuclein toward dopaminergic neurons was determined by calculating the percentage neurons positive for tyrosine hydroxylase (TH^+ cells).

alpha-synuclein = alpha-synuclein (Homo sapiens, UniProt P37840); experiment: Solution NMR binding studies
Excerpt: Importantly, stabilization of such off-pathway conformers can reduce the rate of α-synuclein fibrillization. For instance, sequence changes that promote formation of helical conformers also reduce the rate of α-synuclein fibrillization. A novel screen was devised to identify small molecules capable of promoting off-pathway conformers of α-synuclein. A screen of 640 central nervous system (CNS-active) compounds, including many approved CNS drugs, identified an active compound, indatraline (INDAT), a monoamine reuptake inhibitor that has been widely used as a research tool.

[4] = molecular target: T1, purified recombinant human α-synuclein; experiment: α-synuclein aggregation in aqueous solution (Thioflavin T fluorescence, fluorescence polarization); assay type: biochemical; conditions: α-synuclein 70 μM, 20 mM Bis-tris propane pH 7.4, 100 mM LiCl, 37° C., gentle agitation, Thioflavin T fluorescence and/or fluorescence polarization
Method: Compounds were incubated with purified recombinant human α-synuclein (70 μM) in an aqueous buffer system (20 mM Bis-tris propane, pH 7.4, 100 mM LiCl) at 37° C. with gentle agitation. Structure formation was monitored by Thioflavin T fluorescence and/or fluorescence polarization. Thioflavin T fluorescence can be used to measure aggregation of amyloidogenic proteins, including α-synuclein (excitation, 440 nm; emission, 495 nm) (Naiki, H.; Higuchi, K.; Hosokawa, M.; Takeda, T., Fluorometric determination of amyloid fibrils in vitro using the fluorescent dye, thioflavin T1. Anal Biochem 1989, 177, (2), 244-9; incorporated herein by reference). Average molecular size was monitored by fluorescence polarization using human α-synuclein covalently conjugated to Alexa Fluor 594 (excitation, 546 nm; emission, 620 nm) (Luk, K. C.; Hyde, E. G.; Trojanowski, J. Q.; Lee, V. M., Sensitive fluorescence polarization technique for rapid screening of alpha-synuclein oligomerization/fibrillization inhibitors. Biochemistry 2007, 46, (44), 12522-9; incorporated herein by reference).

SMILES | binding to α-synuclein and effect on the rate of structure formation/aggregation in the presence of HFIP [1] | binding to α-synuclein and effect on the rate of structure formation/aggregation in the presence of HFIP ([1]; listed as indatraline) | suppression of α-synuclein-induced retinal degeneration (percent normal ommatidia) [2] | suppression of α-synuclein-induced retinal degeneration (percent normal ommatidia) ([2]; listed as indatraline) | decrease of α-synuclein neurotoxicity in dopaminergic neurons (TH+ cells) [3] | decrease of α-synuclein neurotoxicity in dopaminergic neurons (TH+ cells) ([3]; listed as indatraline) | IC50 ([3]; Neuron, primary rat embryonic midbrain culture, FIG. 26B, read-out: IC50, reduction of alpha-synuclein toxicity in dopaminergic neurons) [nM] | binding site on alpha-synuclein by solution NMR (alpha-synuclein) | delay of α-synuclein aggregation in aqueous solution [4] | delay of α-synuclein aggregation in aqueous solution ([4]; listed as indatraline)
c1ccc(CNCC2CC(c3ccccc3)c3ccccc32)cc1 (stereo not drawn) [LNK-1521] | bind to α-synuclein and affect the rate of protein aggregation | – | – | – | – | – | – | – | – | –
CN[C@@H]1C[C@@H](c2ccc(Cl)c(Cl)c2)c2ccccc21 [Indatraline, indatraline] | bind to α-synuclein and affect the rate of protein aggregation | binds to α-synuclein and affects the rate of structure formation | suppresses α-synuclein-induced retinal degeneration; also recorded: decreases α-synuclein-mediated retinal degeneration | reduced the toxicity of alpha-synuclein; also recorded: suppress α-synuclein-induced retinal degeneration | diminished toxicity of A53T α-synuclein toward dopaminergic neurons in a dose-dependent manner; also recorded: decreases α-synuclein neurotoxicity | reduced the toxicity of alpha-synuclein; also recorded: decrease α-synuclein neurotoxicity | ~500 | binds at a sequence near the C-terminus of alpha-synuclein | delay the initiation of α-synuclein aggregation | reduced the rate of alpha-synuclein fibrillization (and nucleation); also recorded: delays aggregation of α-synuclein in a dose-dependent manner
CN(C)C1CC(Cc2ccc(Cl)c(Cl)c2)c2ccccc21 (stereo not drawn) [LNK-122] | binds to α-synuclein and affects the rate of structure formation; also recorded: bind to α-synuclein and affect the rate of protein aggregation | – | – | – | – | – | – | – | – | –
